Measurements reported in patent US20070269531A1, “Non-Steroid Anti-Inflammatory Agents with Vitamins, Minerals, and Dietary Supplements for the Prevention and Treatment of Primary, Secondary and Tertiary Cancer” (priority 2004, published 2007).
Several values for one entry are separate records, joined by “and”; a condition that tells them apart may be missing. Equal entries are not always repeated. Where two headings read alike, the source gives them in different places.

Legend:
[1] = tested on: MC-26 tumor; conditions: for overall survival rate: day 50
Protocol: Starting on day 7 after tumor cell inoculation, mice were randomly divided into eight groups as follow:
Group 1: control; control chow; 0.9% NaCl injected intraperitoneally (IP) on days 9, 11, 15, 18, 23, and 28; and 5% IP glucose on days 8, 12, 15, 19, 22, and 25.
Group 4: irinotecan alone; control chow; irinotecan 30 mg/kg on days 8, 12, 15, 19, 22, and 25; and 0.9% NaCl on days 9, 11, 15, 18, 23, and 28.
The date and number of animal in each group were recorded for survival analysis.

[2] = meta-analysis (Lewis et al., 2002); cited from earlier work
[3] = Plasma ibuprofen concentration in mice fed ibuprofen chow; assay type: in vivo, mouse; conditions: mice fed chow containing 1360 mg/kg; blood on days 7 and 14
Protocol: Ibuprofen was purchased from Sigma, and pellet-formed chow containing ibuprofen was prepared by Harlan Teklad (Madison, Wis.). Blood was drawn on day 7 and 14 by tail bleeding, and serum was separated from the whole blood and frozen at −70° C. until analysis.
The plasma samples were analyzed by a quantified liquid chromatography-tandem mass spectrometry (LC/MS/MS) method. Sample preparation was performed using protein precipitation.
A […] aliquot of internal standard working solution (3000 ng/mL of Phenacetin I.S. in acetonitrile) was added to 25 μL of plasma. Each sample was then vortexed and centrifuged for 15 min at a speed of 13,000 rpm at 4° C.
After centrifugation, 150 μL of the supernatant was transferred into an HPLC vial, and aliquots of 5 μL were injected using a Perkin Elmer 200 Series autosampler (Perkin Elmer: Norwalk Conn.). The loading and analytical columns were a Zorbax Extend C18 (4.6×12.5 mm, 5 μdp; Agilent Technologies: Palo Alto, Calif.) and a Waters Xterra C 18 (3.9×20 mm, 3.5 μdp; Waters Corporation: Milfaird, Mass.), respectively. […] The column effluent was analyzed by selected reaction monitoring using a triple quadruple mass spectrometer (Micromass Quattro Ultima; Manchester, UK) equipped with an electrospray ion source operating in negative ion mode.

[4] = tested on: HT-29 cells; assay: In vitro cell proliferation assay (MTT), HT-29; assay type: cell-based, human; conditions: HT-29, 1000 μM, 72 h
Protocol: (§1) The transplantable mouse CRC cell line MC-26 (Singh et al., 1986) was obtained from Dr. K. K. Tanabe (Massachusetts General Hospital, Boston, Mass.), and the human colorectal adenocarcinoma cell line HT 29 was obtained from ATCC. MC-26 cells and HT-29 were maintained in Dulbecco's modified Eagle's medium (DMEM; Life Technologies, Inc, Gaithersburg, Md.) and McCoy's 5A medium, respectively, supplemented with 10% fetal calf sertum plus antibiotics at 37° C. in a humidified atmosphere of 95% air/5% C02. Human umbilical vein endothelial cells (HUVECs) was purchased from Canibrex (Walkersville, Md.) and maintained in EGM-2 medium (Cambrex).
(§2) In Vitro cell proliferation was assessed using a CellTiter 96®AQ One Solution Cell Proliferation Assay kit (Promega). 1-3×10^4 cells/ml were plated in 96-well microtiter plates and incubated overnight. […] 20 μl of MTS tetrazolium solution were added to each well, and the cells were further incubated at 37° C. for 1 h, at which time the reactions were stopped by the addition of 10% SDS. The absorbance at wavelength 490 nm was measured using an EX800 microplate reader (Bio-Tek, Highland, Wis.).

[5] = tested on: HT-29 cells PGE2 levels; assay: Prostaglandin E2 ELISA, HT-29 conditioned medium; assay type: cell-based, human; conditions: 24 h
Protocol: as §1
(§3) Prostaglandin E2 (PGE2), the major metabolite of arachidonic acid metabolism, was measured by ELISA (Cayman Chemical, Ami Arbor, Mich.), using conditional cell culture medium, according to the protocol provided by manufacturer. Measurements were made in triplicate in separate experiments.

[6] = tested on: MC-26 cells; assay: In vitro cell proliferation assay (MTT), MC-26; assay type: cell-based, mouse; conditions: 72 h
Protocol: as §1
In Vitro cell proliferation was assessed using a CellTiter 96®AQ One Solution Cell Proliferation Assay kit (Promega). 1-3×10^4 cells/ml were plated in 96-well microtiter plates and incubated overnight. […]

[7] = tested on: CD31 positive microvessels; assay: CD31 microvessel immunohistochemistry of tumor sections; assay type: in vivo, mouse; conditions: P=0.059
Protocol: To assess anigiogenesis in tumor tissues, frozen sections were made and microvessels were stained with anti-mouse CD31 mnonocolonal antibodies (BD transduction laboratories). The specimens were incubated with secondary antibody for 1 h at 37° C. and stained by the avidin-biotin peroxide complex (ABC) method using an ABC staining kit (Santa Cruz Biotech, Santa Cruz, Calif.). They were visualized by 3,3′-diammobenzidme (DAB) and counlterstained with hematoxyhn.

[8] = cited from earlier work
[9] = tested on: MC-26 cell PGE2 levels; assay: Prostaglandin E2 ELISA, MC-26 conditioned medium; assay type: cell-based, mouse; conditions: MC-26 cells, 1000 μM, 24 h
Protocol: as §1, §3

[10] = tested on: HT-29 tumor; assay: HT-29 human xenograft CRC model in nude mice; conditions: throughout the period of investigation
[11] = tested on: MC-26 liver metastasis; assay: Experimental liver metastasis model (subsplenic MC-26 injection); assay type: in vivo, mouse; conditions: 1360 mg/kg chow for 14 days
Protocol: The incidence and extent of liver metastasis were then recorded.

[12] = tested on: HUVEC; assay: HUVEC cell proliferation (MTT); assay type: cell-based, human; conditions: 1000 μM, 24 h
Protocol: as §1, §2

[13] = tested on: HUVECs; assay: In vitro angiogenesis (tube formation) assay; assay type: cell-based, human; conditions: 1000 μM
Protocol: An in vitro anigiogenesis assay was performed according to the protocol provided by manufacturer (Chemicon, Temecula, Calif.) and described previously ([…] et al., 2004; […] et al., 2004). […] Microscopic digital images were taken, and cumulative tube length was measured using SpotTM3.5.6.

[14] = tested on: MC-26 tumor; assay: Subcutaneous MC-26 tumor model, single agent
[15] = Gross necroscopic examination for GI mucosal injury; assay type: in vivo, mouse; conditions: mice consuming chow containing ibuprofen

Question: Which results are given for O=c1[nH]cc(F)c(=O)[nH]1 [5-FU, Fluorouracil]?
Answer: overall survival rate ([1]; 5-FU given with leucovorin): 30%; tumor volume ([1]; treatment day 7 to 28, 5-FU given with leucovorin, control 1491.3±862): 499±234 mm^3

Question: Which results are given for CCc1c2c(nc3ccc(OC(=O)N4CCC(N5CCCCC5)CC4)cc13)-c1cc3c(c(=O)n1C2)COC(=O)[C@]3(O)CC [CPT-11, Irinotecan]?
Answer: average body weight ([1]; day 28, average over the named groups, control 19.65±1.24): 23.1 ± 1.72 g; overall survival rate ([1]; 5-FU given with leucovorin): 80%; survival compared to control mice and other regimens ([1]; mouse, in vivo): significantly prolonged

Question: With O=C(O)Cc1ccccc1Nc1c(Cl)cccc1Cl [diclofenac] as the compound, how does the “odds ratio, serious upper GI bleeding” value [2] read?
Answer: 4.9

Question: Which plasma ibuprofen concentration [3] does the source give for CC(C)Cc1ccc(C(C)C(=O)O)cc1 (stereo not drawn) [ibuprofen] here?
Answer: ~18,760±7,270 ng/ml and ~20,978±5,966 ng/ml

Question: And the “MTT levels diminished compared to control” value [4]?
Answer: 26.7%

Question: What about the “PGE2 levels diminished compared to control” value [5] of the same compound?
Answer: 81.1%

Question: And the PGE2 level ([5]; control 95.6 pg/mL)?
Answer: 18 pg/mL

Question: And the “decrease in MC-26 cell proliferation” value ([6]; 125 μM)?
Answer: 1.3%

Question: What about the “decrease in MC-26 cell proliferation” value ([6]; 250 μM) of the same compound?
Answer: 5.8%

Question: And the “decrease in MC-26 cell proliferation” value ([6]; 500 μM)?
Answer: 11.3%

Question: And the “decrease in MC-26 cell proliferation” value ([6]; 1000 μM)?
Answer: 39.8%

Question: What about the “reduction in number of microvessels” value [7] of the same compound?
Answer: ~30%

Question: And the “plasma ibuprofen peak concentration” value ([8]; 300 mg capsule, fasting humans (Halsas et al., 1999))?
Answer: approximately 27,000 ng/ml

Question: What about the “peak plasma concentration (Cmax)” value ([8]; healthy humans, long-term high-dose 14 mg/kg) of the same compound?
Answer: 65,000 ng/ml

Question: And the Cmax ([8]; healthy humans, low dose 2.6 mg/kg)?
Answer: 15,800 ng/ml

Question: What about the Cmax ([8]; healthy humans, moderate dose 7 mg/kg) of the same compound?
Answer: 34,000 ng/ml

Question: What about the “peak plasma ibuprofen concentration” value ([8]; single dose of 300 mg, humans (Halsas et al., 1999)) of the same compound?
Answer: ≥ 27,000 ng/mil

Question: What about the “PGE2 levels diminished compared to control” value [9] of the same compound?
Answer: 70.1%

Question: What about the PGE2 level ([9]; control 268.5) of the same compound?
Answer: 80.0 pg/mL

Question: And the “body weight vs control” value [10]?
Answer: no significant difference in body weight

Question: What about the “liver metastases vs control” value [11] of the same compound?
Answer: more prevalent and larger in the control group

Question: And the “liver metastases vs control” value ([11]; listed as IB)?
Answer: Fewer liver metastases

Question: And the “MTT levels diminished compared to control” value [12]?
Answer: approximately 80%

Question: What about the “reduction in tube length” value ([13]; 6 h) of the same compound?
Answer: 40%

Question: And the tube length ([13]; 6 h, control 155.4±21.3)?
Answer: 94.0±24.9 μm

Question: And the “reduction in tube length” value ([13]; 24 h)?
Answer: 88%

Question: What about the tube length ([13]; 24 h, control 76.2±13.5) of the same compound?
Answer: 9.40±6.95 μm

Question: And the tumor growth inhibited ([14]; chow containing 1360 ppm, summary over mouse and human CRC models)?
Answer: 40-82%

Question: And the average body weight ([14]; day 21, control 20.3±2.6)?
Answer: 24.1 ± 1.73 g

Question: What about the “gastroduodenal / GI mucosal injury” value [15] of the same compound?
Answer: no evidence of gastroduodenal mucosal injury

Question: What about the “gastroduodenal / GI mucosal injury” value ([15]; listed as Ibuprofen) of the same compound?
Answer: No GI mucosal injury

Question: With COc1ccc2cc([C@H](C)C(=O)O)ccc2c1 [naproxen] as the compound, how does the “odds ratio, serious upper GI bleeding” value [2] read?
Answer: 9.1

Question: Which “odds ratio, serious upper GI bleeding” value [2] does the source give for CN1C(C(=O)Nc2ccccn2)=C(O)c2ccccc2S1(=O)=O [piroxicam] here?
Answer: 13.1
